Assay results: patent US12116421B2, “Peptide-based Dopa containing adhesive gels” (KING ABDULLAH UNIVERSITY OF SCIENCE AND TECHNOLOGY, priority 2020, dated 2024)
Where a SMILES comes first, the peptide text is derived from it. [ ]: non-standard residue; d: D form. Dopa = N[C@@H](Cc1ccc(O)c(O)c1)C(=O)O; Cha = N[C@@H](CC1CCCCC1)C(=O)O

Assays:
Acropora fragments = experiment: Coral fragments glued to a tile in sea water, selection of best glue; assay type: in vivo, Acropora spp.; details: for survival rate of the coral fragments: after 3 days, tile in aquarium with running seawater; for Survival after 3 days in the aquarium / Survival after attachment: number of Acropora fragments of n = 3; for time to detachment of glued fragments under water: DoIIZK: one of the fragments, IIZDoK: all fragments
Description: In one embodiment, coral fragments were attached to a tile using DoIIZK, IIZDoK, IIZKDo as a glue. The tile, to which the coral fragments were attached, has a size 10×10 cm and was placed into a shallow aquarium supplied with running seawater.
In one embodiment, the survival rate of the coral fragments fixed with DoIIZK was 67%, whereas the survival rate glued with IIZDoK and IIZKDo were respectively 0% and 100%, after 3 days.
The different glues were prepared at the same concentration of 40 mg/mL for DoIIZK, IIZDoK and IIZKDo. Then, the coral fragments were adhered to the surface of the tiles by applying gentle pressure as following: triplicates in the first line with DoIIZK as a glue, second line with IIZDoK and last line with IIZKDo. The experiment setup is illustrated in FIG. 40. The tiles were afterwards placed underwater in a tank containing filtered sea water. One of the fragments that was glued with DoIIZK detached less than 15 minutes after we placed the tile under water and all of the fragments that were glued with IIZDoK detached around 30 minutes after they have been placed under water.

[1] = Peptide gelation study by vial inversion test (CGC and gelation time); assay type: physicochemical; details: 1×PBS; for gelation time: vial inversion test
Description: The critical gelation concentration (CGC) and gelation time of hydrogels formed by the catechol peptides in 1×PBS determined by vial inversion test are summarized below:
The peptide powder was dissolved in 0.90 mL of MilliQ® water and vortexed until fully dissolved. Then, 0.10 mL of 10×PBS buffer were added to the peptide solution to reach a final concentration of 1×PBS. Gelation of the solution in the vial was observed by vial inversion method. The time and critical gelation concentration (CGC) at which each peptide formed a hydrogel were recorded.

[2] = AFM force spectroscopy adhesion measurement in liquid; assay type: physicochemical; details: for reduction of adhesion force by addition of NaCl: NaCl versus MilliQ water
Description: In one embodiment, the peptides were dissolved in the proper solution at a concentration of 10 mg/mL. The peptide solutions were spotted on a freshly cleaved mica sheet and the measurement was performed in liquid.
In one embodiment, the adhesion properties of the Dopa peptides are influenced by the construct lysine-Dopa and by the position of the catechol moiety in the peptide sequence, as indicated by the AFM force spectroscopy results in liquid. In a typical force spectroscopy curve the probe is several times approached to the surface and retracted and for every cycle of retraction the maximum force of adhesion is recorded. The incorporation of a catechol moiety near a lysine would enhance adhesion to negatively charged surfaces. FIG. 28 illustrates the effect of lysine on adhesion to negatively charged surfaces. Therefore, probes and substrates that were manifesting negative charges on their surfaces, such as the silicon probe and the freshly cleaved mica substrate, are used in the AFM spectroscopy. The setup of probe and substrate is illustrated in FIG. 29.
The peptides dissolved in the proper solution at 13 mM concentration each, were spotted on a freshly cleaved mica sheet and the measurement was performed in liquid. Several force curves were recorded for different buffers. […] In FIG. 30, the inset image represents the maximum extension of each peptide dissolved in water, when manually pulled between two glass slides. Also in FIG. 30, the approach part of the curve contains the important information defined as “jump to contact”, while the retract part of the F-D curve contains the adhesion force value. […] Two controls were also introduced: namely the original peptide IIZK, and an alternative peptide IIFK. To better understand the influence of Dopa on the adhesion properties of the peptide, the original short peptide IIZK would make a perfect negative control. We also introduced as a control the IIFK peptide in order to understand the effect of IIZK itself on adhesion. In FIG. 32, statistical significance expressed as p<0.01.
AFM topography measurements were performed on a Dimension Icon SPM (Bruker®). The samples were prepared as follows: peptides were dissolved at 13 mM concentration in MilliQ® water; after 30 minutes, 20 μl of these solutions were dropped on freshly cleaved mica sheets and immediately dried with an N2 stream. Measurements were immediately performed in tapping mode in air by the use of an AFM probe AC_240TS_R3 (Olympus®) with nominal free oscillation at roughly 70 kHz and a nominal spring constant of 2 N/m. The probe was calibrated by contact-free method.^54 Free oscillation amplitude was set at 200 mV with a 5% damping during tapping mode measurement. AFM adhesion measurements were performed on a JPK Nanowizard™ III mounted on Olympus® IX-81 inverted optical microscope. A mica sheet was glued one day before the experiment with double component epoxy glue to a glass slide and enclosed in a plastic o-ring provided by the JPK company for liquid measurements. Each peptide was dissolved in MilliQ® water at a concentration of 13 mM and mixed gently. Starting with the measurement in MilliQ® water, 50 μL of the solution were dropped on the freshly cleaved mica sheet within 5 minutes from the preparation of the solution and let equilibrate for 10 minutes. After, the excess solution was removed by pipetting and discarded. Then 1 mL of MilliQ® water was added gently from the side and after 5 minutes, the sample was rinsed 3 times by additional 1 mL MilliQ® water. Finally, the sample was measured by AFM force spectroscopy (Quantitative imaging mode) with additional 1 mL MilliQ® water. The MilliQ® water was exchanged after the measurement alternatively with a water solution containing 137 mM NaCl or 10 mM Phosphate ions (a combination of Na2HPO4·7H2O and NaH2PO4·H2O to reach pH 7.4). After performing the force spectroscopy map in these two different solutions, eventually, the liquid was exchanged with 1×PBS pH 7.4. […]

[3] = Raman spectroscopy of secondary structure of the peptides; assay type: physicochemical; details: 1×PBS, 5 mg/mL, integrated area under Raman peak
Description: In one embodiment, the secondary structure of the IIZDoK peptide contains a larger amount of α-helix structure than DoIIZK and IIZKDo peptides that preferentially contain β-turn, as can be appreciated in the Raman spectroscopy signatures of the three peptides.
Raman spectroscopy measurements were performed on DoIIZK, IIZDoK and IIZKDo at 5 mg/mL concentration in 1×PBS buffer or on dry powder samples after deposition on CaF2 slide. Witec Alpha 300 RA confocal Raman spectrometer equipped with Andor CCD camera (DU970N thermoelectrically cooled at −75° C.) was used to perform the Raman measurements in backscattered configuration. The samples were excited through a 50× objective (Zeiss® LD EC Epiplan-Neofluar) with linearly polarized 532 nm wavelength excitation laser. For the analysis, the spectra were cosmic rays removed, baseline subtracted with a polynomial of 5th order, and averaged after normalization to the 1450 cm^−1 peak intensity. Several Voigt functions were fitted setting the peaks at 1653±3, 1663±3 and 1680±3 cm^−1, corresponding to α-helix, β-turn and unordered β-turn respectively, with a FWHM set to a max value of 25 cm^−1. An additional peak at about 1635 cm^−1 was introduced into the fitting to account for contributions from water, lysine and isoleucine Raman shifts.^11

[4] = glue 40 mg/mL, tile in filtered sea water

| Structure (SMILES) | survival rate of the coral fragments (Acropora fragments) [%] | Survival after 3 days in the aquarium (Acropora fragments) | Survival after attachment (Acropora fragments) | critical gelation concentration (CGC) [1] [mg/mL] | gelation time ([1]; peptide 1 mg/mL) | gelation time ([1]; peptide 2 mg/mL) | gelation time ([1]; peptide 3 mg/mL) | gelation time ([1]; peptide 4 mg/mL) [min] | gelation time ([1]; peptide 5 mg/mL) [min] | Force of adhesion (Geometric Mean) ([2]; 10 mM PO4, peptide 13 mM) [PN] | Force of adhesion (Geometric Mean) ([2]; 137 mM NaCl, peptide 13 mM) [PN] | Force of adhesion (Geometric Mean) ([2]; 1×PBS, peptide 13 mM) [PN] | Force of adhesion (Geometric Mean) ([2]; MilliQ water, peptide 13 mM) [PN] | reduction of adhesion force by addition of NaCl [2] | Disordered structure Area % [3] | α-helix Area % [3] | β-turn Area % [3] | time to detachment of glued fragments under water (Acropora fragments; [4]) | further results |
| --- | --- | --- | --- | --- | --- | --- | --- | --- | --- | --- | --- | --- | --- | --- | --- | --- | --- | --- | --- |
| CC[C@H](C)[C@H](NC(C)=O)C(=O)N[C@H](C(=O)N[C@@H](CC1CCCCC1)C(=O)N[C@@H](CCCCN)C(=O)N[C@@H](Cc1ccc(O)c(O)c1)C(N)=O)[C@@H](C)CC [IIZKDo, Ac-Ile-Ile-Cha-Lys-Dopa-NH2] (Ac-II[Cha]K[Dopa]-NH2) | 100 | 3 | 3 | 3 | Not gelating | Not gelating | 30 min | >21 | >16 | 13.89 | 76.89 | 29.5645 | 73.31 | did not significantly impact | 1690; 18% | 1658; 18% | 1666; 64% |  | fragments sticking to the tile after 17 days (Acropora fragments; glue 40 mg/mL, tile in filtered sea water, triplicates): still all sticking to the tile after 17 days; gelation time ([1]; peptide 3 mg/mL, listed as IIZKDopa): >30 min |
| CC[C@H](C)[C@H](NC(C)=O)C(=O)N[C@H](C(=O)N[C@@H](CC1CCCCC1)C(=O)N[C@@H](Cc1ccc(O)c(O)c1)C(=O)N[C@@H](CCCCN)C(N)=O)[C@@H](C)CC [IIZDoK, Ac-Ile-Ile-Cha-Dopa-Lys-NH2] (Ac-II[Cha][Dopa]K-NH2) | 0 | 0 | 3 | 4 | Not gelating | Not gelating | Not gelating | 80 | >75 | 22.47 | 44.01 | 23.33 | 72 | about 50% | 1690; 16% | 1656; 40% | 1666; 44% | around 30 minutes | gelation time ([1]; peptide 4 mg/mL, listed as IIZDopaK): >80 min |
| CC[C@H](C)[C@H](NC(=O)[C@H](Cc1ccc(O)c(O)c1)NC(C)=O)C(=O)N[C@H](C(=O)N[C@@H](CC1CCCCC1)C(=O)N[C@@H](CCCCN)C(N)=O)[C@@H](C)CC [DoIIZK, Ac-Dopa-Ile-Ile-Cha-Lys-NH2] (Ac-[Dopa]II[Cha]K-NH2) | 67 | 2 | 3 | 2 | Not gelating | 45 min | >30 min | >20 | >10 | 34.81 | 64.64 | 13.36 | 112.7 | about 50% | 1687; 22% | 1650; 13% | 1665; 65% | less than 15 minutes | gelation time ([1]; peptide 2 mg/mL, listed as DopaIIZK): >45 min |
